The target in one assay is T1, Lp-PLA2 in human plasma (Homo sapiens, UniProt Q13093).
T1 construct: from tissue; host or cells: pooled human plasma
T1 sequence (Q13093 22-441): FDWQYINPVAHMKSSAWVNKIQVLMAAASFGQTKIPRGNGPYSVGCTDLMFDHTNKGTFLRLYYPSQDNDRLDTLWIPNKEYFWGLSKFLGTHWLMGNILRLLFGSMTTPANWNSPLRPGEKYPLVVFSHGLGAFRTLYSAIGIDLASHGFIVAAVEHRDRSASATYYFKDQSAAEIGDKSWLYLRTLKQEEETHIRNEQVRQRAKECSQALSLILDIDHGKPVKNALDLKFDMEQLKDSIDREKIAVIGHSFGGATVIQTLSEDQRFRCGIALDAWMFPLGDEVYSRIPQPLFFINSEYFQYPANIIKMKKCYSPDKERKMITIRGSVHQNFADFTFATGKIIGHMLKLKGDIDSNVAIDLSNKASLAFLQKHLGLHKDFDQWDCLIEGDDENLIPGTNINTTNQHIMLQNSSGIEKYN
The assay is described as follows: (3a) Lp-PLA2 human plasma Thio-PAF assay. It counts as biochemical. As to conditions: (3a) Thio-PAF assay, pooled human plasma; Examples 1-265 and 413-430 were tested here; read-out: pIC50 in the Lp-PLA2 human plasma assay (converted). The text has this: (3) Lipoprotein-Associated Phospholipase A2 (Lp-PLA2) Human Plasma Assay
The human plasma assay utilizes a thioester analog of PAF (phosphatidylcholine), where hydrolysis yields to the formation of a phospholipid containing a free thiol group. The amount of thiol is quantitated continuously by reacting with CPM (7-diethylamino-3-(4′-maleimidylphenyl)-4-methylcoumarin), a maleimide which increases in fluoresence after Michael addition of thiols. This assay may detect the activity of Lp-PLA2 in human plasma, as determined by specific inhibition by Lp-PLA2 inhibitors.
The thio-PAF assay was run as a quenched 15 μL assay. Compounds source plate was prepared by making 1:3 (by volume) serial dilution of the compounds into pure DMSO on 384-well microplate. 0.01 μL of compounds on compound source plate were transferred to 384 well Greiner 784076 (black) low-volume plates by ECHO liquid dispenser. 8 μL pooled human plasma, which was previously aliquoted and frozen, was added. Plates were centrifuged for 10 sec at 500 rpm. After 30 minutes preincubation, 2 μL of substrate solution comprising 2.5 mM 2-thio-PAF [from ethanol stock], 32 μM CPM [from a DMSO stock] and 3.2 mM NEM (N-ethylmaleimide) [made fresh daily in DMSO] in assay buffer of 50 mM HEPES, pH 7.4, 150 mM NaCl, 1 mM CHAPS was added to 384 well Greiner 784076 (black) low-volume plates by BRAVO liquid handling station. After 2 mins, reaction was quenched with 5 μL of 5% aqueous trifluoroacetic acid (TFA). Plates were covered to protect from light and incubated for 40 min at room temperature. Plates were read at ex: 380/em: 485 using Envision microplate reader. PIC50 data, curve and QC analysis were conducted by using XLFit module in Excel.

In assay [1] the target is T2, recombinant human Lp-PLA2 (Homo sapiens, UniProt Q13093).
T2 sequence (Q13093 22-441): T1 sequence (Q13093 22-441)
Nature of the assay: (1a) PED6 assay, recombinant human Lp-PLA2 (rhLp-PLA2). It counts as biochemical. As to conditions: Examples 1-167 and 413-430 were tested here, one experiment or average of multiple experiments, read-out: rhLp-PLA2 (pIC50) (converted). The source says:
(1) Recombinant Human Lp-PLA2 Assays (rhLp-PLA2)
N-((6-(2,4-Dinitrophenyl)amino)-hexanoyl)-2-(4,4-difluoro-5,7-dimethyl-4-bora-3a,4a-diaza-s-indacene-3-pentanoyl)-1-hexadecanoyl-sn-glycero-3-phosphoethanolamine, triethylammonium salt (PED6) is a commercially available fluorescently-labeled phospholipid, which is commercially available from Invitrogene and Molecular Probes. There is a quenching […] and a Bodipy fluorescein (FL) group in the sn2 position. Upon cleavage with Lp-PLA2, the Bodipy FL group is liberated and then may result in an increase in fluorescence. Inhibitors of Lp-PLA2 therefore prevent this cleavage and no fluorescent increase is observed.
The PED6 assay was run as an unquenched 10 μL assay. The source plate containing the compounds to be tested was prepared by making 1:3 (by volume) serial dilution of the compounds within DMSO on 384-well microplate. Then, 0.01 μL of the compounds on compound source plate were transferred into 384 well Greiner 784076 (black) plates using ECHO liquid dispenser. 5 μL of recombinant human Lp-PLA2 enzyme (4 nM) rhLp-PLA2 in assay buffer of 50 mM HEPES, pH 7.4, 150 mM NaCl, 1 mM CHAPS) was added to each well of the plate. Plates were centrifuged for 10 sec at 500 rpm. After 30 minutes preincubation, 5 μL of substrate (4 μM PED6 [from 5 mM DMSO stock] in assay buffer of 50 mM HEPES, pH 7.4, 150 mM NaCl, 1 mM CHAPS) was added to 384 well Greiner 784076 (black) plates. Plates were centrifuged for 10 sec at 500 rpm. The plate was covered to protect it from light and incubated for 20 min at room temperature. The plates were read for fluorescence intensity at ex: 480/em: 540 using ViewLux microplate imager for Envision spectrofluroimeters. pIC50 data, curve and QC analysis was conducted by using XL fit module in Excel.

As to `CN1CCN2c3cc(OCc4cc(F)c(Oc5cnn(C)c5)c(F)c4)nc(=O)n3CC2C1` (centres unmarked) [Example E167, 7-((3,5-Difluoro-4-((1-methyl-1H-pyrazol-4-yl)oxy)benzyl)oxy)-2-methyl-3,4,11,11a-tetrahydro-1H-pyrazino[1,2′:3,4]imidazo[1,2-c]pyrimidin-9(2H)-one], the IC50 on Lp-PLA2 in human plasma was no more than 10000 nM; in assay [1] it was no more than 100 nM.
Consider `Cc1cc(Oc2c(F)cc(COc3cc4n(c(=O)n3)C[C@H]3COCN43)cc2F)ccn1` [Example E161, (S)-6-((3,5-difluoro-4-((2-methylpyridin-4-yl)oxy)benzyl)oxy)-10,10a-dihydro-1H-oxazolo[3′,4′:3,4]imidazo[1,2-c]pyrimidin-8(3H)-one], for which the results for the IC50 (on Lp-PLA2 in human plasma; in assay [1]) were no more than 10000 nM and no more than 100 nM, respectively.
The matching figures for `CCCn1cc(Oc2c(F)cc(COc3cc4n(c(=O)n3)C[C@H]3COCN43)cc2F)cn1` [Example E150, (S)-6-((3,5-difluoro-4-((1-propyl-1H-pyrazol-4-yl)oxy)benzyl)oxy)-10,10a-dihydro-1H-oxazolo[3′,4′:3,4]imidazo[1,2-c]pyrimidin-8(3H)-one]: no more than 100 nM and no more than 100 nM.
`O=c1nc(OCc2cc(F)c(Oc3ccnc(C(F)(F)F)c3)c(F)c2)cc2n1CC1OCCCN21` (single isomer, unassigned) [Example E162, 7-((3,5-difluoro-4-((2-(trifluoromethyl)pyridin-4-yl)oxy)benzyl)oxy)-3,4,11,11a-tetrahydropyrimido[6′,1′:2,3]imidazo[5,1-b][1,3]oxazin-9(2H)-one]: the IC50 at Lp-PLA2 in human plasma was no more than 100 nM; in assay [1], no more than 1 nM.
The matching figures for `O=c1nc(OCc2cc(F)c(Oc3ccnc(C(F)(F)F)c3)c(F)c2)cc2n1CC1OCCCN21` (single isomer, unassigned) [Example E163, 7-((3,5-difluoro-4-((2-(trifluoromethyl)pyridin-4-yl)oxy)benzyl)oxy)-3,4,11,11a-tetrahydropyrimido[6′,1′:2,3]imidazo[5,1-b][1,3]oxazin-9(2H)-one]: no more than 10000 nM and no more than 100 nM.
Take `N#Cc1ccc(Oc2ccc(COc3cc4n(c(=O)n3)CC3CCCCN43)cc2C#N)cc1Cl` (centres unmarked) [Example E20, 2-Chloro-4-(2-cyano-4-(((1-oxo-6,7,8,9,9a,10-hexahydro-1H-pyrido[1′,2′:3,4]imidazo[1,2-c]pyrimidin-3-yl)oxy)methyl)phenoxy)benzonitrile]: the IC50 at Lp-PLA2 in human plasma was no more than 100 nM; in assay [1], no more than 1 nM.
Take `N#Cc1cc(F)cc(COc2cc3n(c(=O)n2)CC2CCCCN32)c1` (centres unmarked) [Example E15, 3-Fluoro-5-(((1-oxo-6,7,8,9,9a,10-hexahydro-1H-pyrido[1′,2′:3,4]imidazo[1,2-c]pyrimidin-3-yl)oxy)methyl)benzonitrile]: the IC50 at Lp-PLA2 in human plasma was no more than 10000 nM; in assay [1], no more than 100 nM.
The matching figures for `O=c1nc(OCc2cc(F)c(OC3CN(CCC(F)(F)F)C3)c(F)c2)cc2n1C[C@@H]1CCCN21` [Example E97, (S)-3-((3,5-difluoro-4-((1-(3,3,3-trifluoropropyl)azetidin-3-yl)oxy)benzyl)oxy)-7,8,8a,9-tetra hydropyrrolo[1′,2′:3,4]imidazo[1,2-c]pyrimidin-1(6H)-one]: no more than 10000 nM and no more than 100 nM.
The matching figures for `O=c1nc(OCc2cc(F)c(Oc3ccnc(C(F)(F)F)c3)c(F)c2)cc2n1CC1OCCN21` (single isomer, unassigned) [Example E164, 6-((3,5-difluoro-4-((2-(trifluoromethyl)pyridin-4-yl)oxy)benzyl)oxy)-10,10a-dihydro-2H-oxazolo[3′,2′:3,4]imidazo[1,2-c]pyrimidin-8(3H)-one]: no more than 100 nM and no more than 1 nM.
The matching figures for `O=c1nc(OCc2cc(F)cc(F)c2)cc2n1C[C@H]1COCCN21` [Example E129, (S)-7-((3,5-difluorobenzyl)oxy)-3,4,11,11a-tetrahydropyrimido[6′,1′:2,3]imidazo[5,1-c][1,4] oxazin-9(1H)-one]: no more than 100 nM and no more than 100 nM.
With `Cc1ccc(Oc2c(F)cc(COc3cc4n(c(=O)n3)C[C@H]3COCN43)cc2F)cn1` [Example E149, (S)-6-((3,5-difluoro-4-((6-methylpyridin-3-yl)oxy)benzyl)oxy)-10,10a-dihydro-1H-oxazolo[3′,4′:3,4]imidazo[1,2-c]pyrimidin-8(3H)-one], the IC50 at Lp-PLA2 in human plasma is no more than 100 nM; in assay [1], no more than 1 nM.
On the same counts, the results for `Cc1cc(Oc2c(F)cc(COc3cc4n(c(=O)n3)C[C@@H]3COCN43)cc2F)ccn1` [Example E155, (R)-6-((3,5-difluoro-4-((2-methylpyridin-4-yl)oxy)benzyl)oxy)-10,10a-dihydro-1H-oxazolo[3′,4′:3,4]imidazo[1,2-c]pyrimidin-8(3H)-one] are no more than 10000 nM and no more than 100 nM.
The matching figures for `O=c1nc(OCc2cc(F)c(Oc3cnc(C(F)(F)F)nc3)c(F)c2)cc2n1CC1COCCN21` (centres unmarked) [Example E110, 7-((3,5-Difluoro-4-((2-(trifluoromethyl)pyrimidin-5-yl)oxy)benzyl)oxy)-3,4,11,11a-tetra hydropyrimido[6′,1′:2,3]imidazo[5,1-c][1,4]oxazin-9(1H)-one]: no more than 100 nM and 0.501 nM.
The matching figures for `CCn1cc(Oc2c(F)cc(COc3cc4n(c(=O)n3)C[C@H]3COCN43)cc2F)cn1` [Example E160, (S)-6-((4-((1-ethyl-1H-pyrazol-4-yl)oxy)-3,5-difluorobenzyl)oxy)-10,10a-dihydro-1H-oxazolo[3′,4′:3,4]imidazo[1,2-c]pyrimidin-8(3H)-one]: no more than 10000 nM and no more than 100 nM.
In the case of `O=c1nc(OCc2ccc(F)cc2F)cc2n1C[C@@H]1CCCCN21` [Example E57, (S)-3-((2,4-Difluorobenzyl)oxy)-6,7,8,9,9a,10-hexahydro-1H-pyrido[1′,2′:3,4]imidazo[1,2-c] pyrimidin-1-one], the IC50 is no more than 10000 nM on Lp-PLA2 in human plasma and no more than 100 nM in assay [1].
Take `O=c1nc(OCc2ccc(F)c(C(F)(F)F)c2)cc2n1CC1CCCCN21` (centres unmarked) [Example E13, 3-((4-Fluoro-3-(trifluoromethyl)benzyl)oxy)-6,7,8,9,9a,10-hexahydro-1H-pyrido-[1′,2′:3,4] imidazo[1,2-c]pyrimidin-1-one]: in assay [1], the IC50 was no more than 10000 nM.
Same read-out and setting: as for `O=c1nc(OCc2cc(F)c(Oc3ccnc(C(F)(F)F)c3)c(F)c2)cc2n1C[C@H]1CCCN21` [Example E67, (R)-3-((3,5-difluoro-4-((2-(trifluoromethyl)pyridin-4-yl)oxy)benzyl)oxy)-7,8,8a, 9-tetra hydropyrrolo[1′,2′:3,4]imidazo[1,2-c]pyrimidin-1(6H)-one], the figure is no more than 1 nM.

For the origin of these results see patent US11999746B2, “Compounds” (GlaxoSmithKline Intellectual Property Development Limited, priority 2014, dated 2024).
